# Assay results: US8772323B2, “Benzoxazole- and tetrahydrobenzoxazole-substituted pyridazinones as GPR119 agonists” (Boehringer Ingelheim International GmbH, priority 2010, dated 2014)
# Target: human GPR119 (Homo sapiens (Human), UniProt Q8TDV5)
# Assay: AlphaScreen cAMP assay in Min-6/hGPR119 cells (GPR119 activation, intracellular cAMP)
# Type: cell-based
# Conditions: MIN6 cells stably transfected with human GPR119; 45 minutes' incubation at RT; AlphaScreen cAMP Assay Kit
# Method: The compounds of formula I according to the invention are GPR119 agonists. The effect of the compounds on the activation of GPR119 and on the stimulation of intracellular cAMP concentration is determined using the AlphaScreen cAMP Assay Kit (Cat. No. #6760625R) made by PerkinElmer.
# MIN6 cells [Miyazaki J et al. Endocrinology. 1990 July; 127(1):126-32] were stably transfected with an expression vector for human GPR119 cDNA (Acc. No. NP_848566). Min-6/hGPR119 cells are cultured in DMEM, 10% FBS, 50 μM β-mercaptoethanol, 0.3 mg/mL Geniticin, 2 mM GlutaMAX at 37° C. 5% CO2. For the assay, the cells are placed in Optiplates (white, 384-well, 160W-barcoded, TC, sterile with lid, Cat. No. #6007688 (Perkin Elmer); 10000 cells/well; 50 μl). The plates covered with lids are then incubated for 24 hours at 37° C./5% CO2.
# After the medium has been sucked out of the wells completely, 10 μl of the test compound are added, the compounds are diluted beforehand with stimulating buffer (140 mM NaCl, 3.6 mM KCl, 0.5 mM NaH2PO4, 0.5 mM MgSO4, 1.5 mM CaCl2, 10 mM Hepes, 5 mM NaHCO3; pH 7.4. 0.5 mM IBMX and 0.1% BSA, the final DMSO concentration is 1%). After 45 minutes' incubation at RT, the cAMP concentrations are determined using the AlphaScreen cAMP Assay Kit (Cat. No. #6760625R from PerkinElmer).
# human GPR119, sequence (Q8TDV5 whole entry): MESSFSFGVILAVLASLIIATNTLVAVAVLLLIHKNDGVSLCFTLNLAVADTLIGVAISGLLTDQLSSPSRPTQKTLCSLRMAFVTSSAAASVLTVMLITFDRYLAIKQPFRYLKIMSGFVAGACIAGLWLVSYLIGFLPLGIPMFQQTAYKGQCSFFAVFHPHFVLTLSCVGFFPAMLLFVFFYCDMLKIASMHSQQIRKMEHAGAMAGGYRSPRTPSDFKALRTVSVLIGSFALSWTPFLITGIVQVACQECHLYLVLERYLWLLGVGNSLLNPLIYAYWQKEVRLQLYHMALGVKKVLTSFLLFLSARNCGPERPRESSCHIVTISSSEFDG
row,EC50,Structure (SMILES)
1,306 nM,"CC[C@@H]1C(=O)NN=C(c2ccc3nc(-c4ccccc4)oc3c2)[C@H]1C (relative stereo) [Example 126, trans-4-ethyl-5-methyl-6-(2-phenyl-benzoxazol-6-yl)-4,5-dihydro-2H-pyridazin-3-one]"
2,6720 nM,"CCC[C@H]1C(=O)NN=C(c2ccc3nc(-c4ccccc4)oc3c2)[C@H]1C (relative stereo) [Example 129, cis-5-methyl-6-(2-phenyl-benzoxazol-6-yl)-4-propyl-4,5-dihydro-2H-pyridazin-3-one]"
3,209 nM,"CC[C@@H]1C(c2ccc3nc(-c4ccccc4)oc3c2)=NNC(=O)[C@H]1C (relative stereo) [Example 145, trans-5-ethyl-4-methyl-6-(2-phenyl-benzoxazol-6-yl)-4,5-dihydro-2H-pyridazin-3-one]"
4,1040 nM,"CCC[C@H]1C(=O)NN=C(c2ccc3nc(-c4ccc(OCCN(C(C)C)C(C)C)cc4)oc3c2)[C@H]1C (relative stereo) [Example 169, cis-6-{2-[4-(2-diisopropylamino-ethoxy)-phenyl]-benzoxazol-6-yl}-5-methyl-4-propyl-4,5-dihydro-2H-pyridazin-3-one]"
5,37 nM,"CCC[C@@H]1C(=O)NN=C(c2ccc3nc(-c4ccc(OC(C)C)cc4)oc3c2)[C@H]1C (relative stereo) [Example 171, trans-6-[2-(4-isopropoxy-phenyl)-benzoxazol-6-yl]-5-methyl-4-propyl-4,5-dihydro-2H-pyridazin-3-one]"
6,116 nM,"CCC[C@H]1C(=O)NN=C(c2ccc3nc(-c4ccc(F)cc4)oc3c2)[C@@H]1C (relative stereo) [Example 182, trans-6-[2-(4-fluoro-phenyl)-benzoxazol-6-yl]-5-methyl-4-propyl-4,5-dihydro-2H-pyridazin-3-one]"
7,134 nM,"CCC[C@H]1C(=O)NN=C(c2ccc3nc(-c4cccs4)oc3c2)[C@@H]1C (relative stereo) [Example 183, trans-5-methyl-4-propyl-6-(2-thiophen-2-yl-benzoxazol-6-yl)-4,5-dihydro-2H-pyridazin-3-one]"
8,53 nM,"CCC[C@H]1C(=O)NN=C(c2ccc3nc(-c4ccc(C)s4)oc3c2)[C@@H]1C (relative stereo) [Example 184, trans-5-methyl-6-[2-(5-methyl-thiophen-2-yl)-benzoxazol-6-yl]-4-propyl-4,5-dihydro-2H-pyridazin-3-one]"
9,88 nM,"CCC[C@H]1C(=O)NN=C(c2ccc3nc(-c4cc(C)cs4)oc3c2)[C@@H]1C (relative stereo) [Example 186, trans-5-methyl-6-[2-(4-methyl-thiophen-2-yl)-benzoxazol-6-yl]-4-propyl-4,5-dihydro-2H-pyridazin-3-one]"
10,173 nM,"CCC[C@H]1C(=O)NN=C(c2ccc3nc(-c4ccsc4)oc3c2)[C@@H]1C (relative stereo) [Example 187, trans-5-methyl-4-propyl-6-(2-thiophen-3-yl-benzoxazol-6-yl)-4,5-dihydro-2H-pyridazin-3-one]"
11,896 nM,"C=CC[C@H]1C(=O)NN=C(c2ccc3nc(-c4ccccc4)oc3c2)[C@H]1C (relative stereo) [Example 198, cis-4-allyl-5-methyl-6-(2-phenyl-benzoxazol-6-yl)-4,5-dihydro-2H-pyridazin-3-one]"
12,52 nM,"CCC[C@@H]1C(=O)NN=C(c2ccc3nc(-c4ccc(OCc5ccccc5)cc4)oc3c2)[C@H]1C (relative stereo) [Example 200, trans-6-[2-(4-benzoxy-phenyl)-benzoxazol-6-yl]-5-methyl-4-propyl-4,5-dihydro-2H-pyridazin-3-one]"
13,110 nM,"CCC[C@H]1C(=O)NN=C(c2ccc3nc(-c4cccn4C)oc3c2)[C@@H]1C (relative stereo) [Example 252, Trans-5-methyl-6-[2-(1-methyl-1H-pyrrol-2-yl)-benzoxazol-6-yl]-4-propyl-4,5-dihydro-2H-pyridazin-3-one]"
14,615 nM,"CCC1OC(=O)NN=C1c1ccc2nc(-c3ccccc3)oc2c1 (stereo in doubt) [Example 80, (R)-6-ethyl-5-(2-phenyl-benzoxazol-6-yl)-3,6-dihydro-[1,3,4]oxadiazin-2-one]"

# Further lines, the compound ahead of its results:
row,Structure (SMILES),EC50
1,"CCC[C@@H]1C(=O)NN=C(c2ccc3nc(-c4ccccc4)oc3c2)[C@H]1C (relative stereo) [Example 128, trans-5-methyl-6-(2-phenyl-benzoxazol-6-yl)-4-propyl-4,5-dihydro-2H-pyridazin-3-one]",56 nM
2,"CCC[C@@H]1C(=O)NN=C(c2ccc3nc(-c4ccc(OCCN(C(C)C)C(C)C)cc4)oc3c2)[C@H]1C (relative stereo) [Example 170, trans-6-{2-[4-(2-diisopropylamino-ethoxy)-phenyl]-benzoxazol-6-yl}-5-methyl-4-propyl-4,5-dihydro-2H-pyridazin-3-one]",53 nM
3,"CCC[C@@H]1C(=O)NN=C(c2ccc3nc(-c4ccc(OCCCN5CCCCC5)cc4)oc3c2)[C@H]1C (relative stereo) [Example 172, trans-5-methyl-6-{2-[4-(3-piperidin-1-yl-propoxy)-phenyl]-benzoxazol-6-yl}-4-propyl-4,5-dihydro-2H-pyridazin-3-one]",755 nM
4,"CCC[C@@H]1C(=O)NN=C(c2ccc3nc(-c4ccc(OC)cc4)oc3c2)[C@H]1C (relative stereo) [Example 174, trans-6-[2-(4-methoxy-phenyl)-benzoxazol-6-yl]-5-methyl-4-propyl-4,5-dihydro-2H-pyridazin-3-one]",92 nM
5,"CC[C@H]1C(c2ccc3nc(-c4ccc(OC(C)C)cc4)oc3c2)=NNC(=O)[C@@H]1C (relative stereo) [Example 178, trans-5-ethyl-6-[2-(4-isopropoxy-phenyl)-benzoxazol-6-yl]-4-methyl-4,5-dihydro-2H-pyridazin-3-one]",108 nM
6,"CC[C@@H]1C(c2ccc3nc(-c4ccc(OC(C)C)cc4)oc3c2)=NNC(=O)[C@@H]1C (relative stereo) [Example 179, cis-5-ethyl-6-[2-(4-isopropoxy-phenyl)-benzoxazol-6-yl]-4-methyl-4,5-dihydro-2H-pyridazin-3-one]",3840 nM
7,"CCC[C@H]1C(=O)NN=C(c2ccc3nc(-c4ccc(Cl)cc4)oc3c2)[C@@H]1C (relative stereo) [Example 185, trans-6-[2-(4-chloro-phenyl)-benzoxazol-6-yl]-5-methyl-4-propyl-4,5-dihydro-2H-pyridazin-3-one]",142 nM
8,"CCC[C@H]1C(=O)NN=C(c2ccc3nc(-c4cc(C)oc4C)oc3c2)[C@@H]1C (relative stereo) [Example 189, trans-6-[2-(2,5-dimethyl-furan-3-yl)-benzoxazol-6-yl]-5-methyl-4-propyl-4,5-dihydro-2H-pyridazin-3-one]",127 nM
9,"CCCC[C@@H]1C(=O)NN=C(c2ccc3nc(-c4ccccc4)oc3c2)[C@H]1C (relative stereo) [Example 197, trans-4-butyl-5-methyl-6-(2-phenyl-benzoxazol-6-yl)-4,5-dihydro-2H-pyridazin-3-one]",1110 nM
10,"CCC[C@H]1C(=O)NN=C(c2ccc3nc(-c4ccc(OCc5ccccc5)cc4)oc3c2)[C@H]1C (relative stereo) [Example 199, cis-6-[2-(4-benzoxy-phenyl)-benzoxazol-6-yl]-5-methyl-4-propyl-4,5-dihydro-2H-pyridazin-3-one]",832 nM
11,"CCC1CC(=O)NN=C1c1ccc2nc(-c3ccc(O[C@@H]4CCCC[C@H]4N(CC)CC)cc3)oc2c1 (relative stereo) [Example 224, 6-{2-[4-(trans-2-diethylamino-cyclohexyloxy)-phenyl]-benzoxazol-6-yl}-5-ethyl-4,5-dihydro-2H-pyridazin-3-one]",319 nM
12,"CCC1CC(=O)NN=C1c1ccc2nc(-c3ccc(O[C@H]4CCC[C@@H]4N4CCCCC4)cc3)oc2c1 (relative stereo) [Example 225, 5-ethyl-6-{2-[4-(trans-2-piperidin-1-yl-cyclopentyloxy)-phenyl]-benzoxazol-6-yl}-4,5-dihydro-2H-pyridazin-3-one]",231 nM
13,"CCC1OC(=O)NN=C1c1ccc2nc(-c3ccccc3)oc2c1 (stereo in doubt) [Example 79, (S)-6-ethyl-5-(2-phenyl-benzoxazol-6-yl)-3,6-dihydro-[1,3,4]oxadiazin-2-one]",41 nM
14,"CCC[C@@H]1C(=O)NN=C(c2ccc3nc(-c4ccc(OCCN5CCCCC5)cc4)oc3c2)[C@H]1C (stereo in doubt) [Example 173, trans-5-methyl-6-{2-[4-(3-piperidin-1-yl-ethoxy)-phenyl]-benzoxazol-6-yl}-4-propyl-4,5-dihydro-2H-pyridazin-3-one]",218 nM
15,"CCC1CC(=O)NN=C1c1ccc2nc(-c3ccc(OCCN4[C@@H](C)CC[C@@H]4C)cc3)oc2c1 (stereo in doubt) [Example 250, 6-(2-{4-[2-((2R,5R)-trans-2,5-dimethylpyrrolidin-1-yl)-ethoxy]-phenyl}-benzoxazol-6-yl)-5-ethyl-4,5-dihydro-2H-pyridazin-3-one]",235 nM
16,"CCC[C@H]1C(=O)NN=C(c2ccc3nc(C4CC4)oc3c2)[C@@H]1C (stereo in doubt) [Example 253, 6-(2-cyclopropyl-benzoxazol-6-yl)-5-methyl-4-propyl-4,5-dihydro-2H-pyridazin-3-one]",299 nM
